Columns and labels:
hTAU mice [1] = assay: Ledge assay (sensorimotor coordination) in e-PES injected hTAU mice; assay type: in vivo, mouse; conditions: for falling off of the ledge / mobility: e-PES+trehalose mice
Excerpt: FIGS. 22A-22C provide the results of sensory-motor coordination studies utilizing a ledge assay. hTAU mice were compared to hTAU mice injected with e-PES at 10-12 weeks age (n=5) with or without trehalose administration. […] FIG. 22C provides a bar graph comparing time spent on the ledge (seconds) for each subset of mice (i.e., hTAU control, PES 49, and PES 49+trehalose).
Sensorimotor coordination deficits were detected by the ledge assay. In the ledge assay, mice were placed on the elevated cage's ledge at a height of 35 cm and width of 0.8 cm and their movement was monitored. Each mouse was tested three times (approximately 20 seconds) and scored from 0 to 3 depending on the severity of deficits.
(§1) 100 μL e-PES (early-onset preeclampsia serum) was injected in 10-12 weeks old non-pregnant female hTAU mice. The i.p. injection was performed once a week for 4 weeks. Trehalose treatment (2 g/kg/week) or saline (100 μL/week) was initiated after completion of 4 weeks of e-PES injection cycle. At the end of the trehalose treatment, a group of mice (n=5 for each group) was sacrificed after 2 weeks of resting biological activity (FIG. 18).
(§2) Another two groups were kept to assess their behavioral and brain pathological outcomes (i.e., nesting behavior and/or sensory motor coordination).

human trophoblasts = assay: AD serum-induced protein aggregation in primary human trophoblasts, ProteoStat staining; assay type: cell-based; conditions: 50 mM trehalose, 10% AD patient serum, 72 hours
Protocol: (§3) Primary human trophoblasts and SHSY cells were cultured and washed with serum-free media at 70% confluency. The cells were then cultured with 10% serum samples from AD patients for 72 hours (trophoblasts) and 24 hours (neuronal cells), respectively, in the absence or presence of 50 mM trehalose. Cells were stained with ProteoStat dye and evaluated for accumulation of protein aggregates.

[2] = for humans, by the FDA, based on safety studies in mice, rats and rabbits, including during pregnancy; cited from earlier work
SHSY neuronal cells = assay: AD serum-induced protein aggregation in SHSY neuronal cells, ProteoStat staining; assay type: cell-based; conditions: 50 mM trehalose, 10% AD patient serum, 24 hours
Protocol: as §3

hTAU mice [3] = assay: Brain pathology (AT180 hyperphosphorylated Tau staining of mPFC) in e-PES injected hTAU mice (Example 8); assay type: in vivo, mouse; conditions: trehalose 2 g/kg/week i.p. for 4 weeks after 4 weeks of e-PES injection
Protocol: 10-12 week old non-pregnant female hTAU mice were injected with e-PE serum (100 μL/week for 4 weeks) followed by treatment (i.p injection) with either saline (100 μL /week) or Trehalose (2 g/kg/week) for 4 weeks, followed by 2 weeks of resting period prior to biological assessments. Medial prefrontal cortex (mPFC) was stained for hyperphosphorylated Tau (using antibody AT180 which detects Tau hyperphosphorylation at T231 & S235). FIG: 19A: Confocal images stained with AT180 are shown that correspond to the mPFC of control (upper), e-PES (middle), and e-PES+Trehalose (bottom), with quantification data in mPFC being present at right panels; inset images are the high magnification image of the selected area; FIG. 19B: provides a bar graph showing the number of AT180 positive cells/0.1 mm^2 in hTAU control, PES 49, and PES 49+trehalose treated mice.
10-12 weeks old non-pregnant female hTAU mice were injected with e-PE serum (100 μL/week for 4 weeks) followed by treatment (i.p injection) with either saline (100 μL/week) or Trehalose (2 g/kg/week) for 4 weeks, followed by 8-10 weeks of resting period prior to biological assessment. Medial prefrontal cortex (mPFC) was stained for hyperphosphorylated Tau (using antibody AT180 which detects Tau hyperphosphorylation at T231 & S235). […]
Brain pathologies were evaluated in a group of mice at 4 and 6 months of age.

hTAU mice [4] = assay: Nesting activity assay in e-PES injected hTAU mice; assay type: in vivo, mouse
Protocol: FIG. 21A: provides photographs of representative nests constructed by the mice; FIG. 21B and FIG. 21D provide bar graphs showing nestlet score for 4-month old (FIG. 21B) and 6-month old (FIG. 21D) mice; FIG. 21C and FIG. 21E provide bar graphs showing untorn nestlet weight for 4-month old (FIG. 21C) and 6-month old (FIG. 21E) mice.
Nesting activity was assessed using a modified scoring criteria to rate the quality of nest construction and the amount of torn nestlet material. Following the nocturnal period, untorn nesting material was weighed, and nests were photographed for scoring on a 0-7 ordinal scale modified from published criteria. Nestlet scores and weights are shown as mean+SEM; *p<0.05 versus controls. Preeclampsia serum was used to observe significant effects in hTAU mice without waiting for 9-12 months of age.
as §1, §2

[5] = tested on: hTAU transgenic mouse model; assay: Preeclampsia serum-induced onset of AD features in the hTAU transgenic mouse model (Example 7); assay type: in vivo; conditions: weekly trehalose (2 mg/kg) from 2 months (60 day old mice) for one month; preeclampsia serum injected at 1 month
Protocol: The efficacy with which trehalose inhibits the onset of Alzheimer's disease (AD) features was assessed using the hTAU transgenic mouse model at ages of 3, 6, 9, and 12 months. The onset of AD features were preempted by the administration of serum obtained from pregnant women with normal pregnancy or preeclampsia.

[6] = e-PES alone compared to control and e-PES+trehalose treated hTAU mice (n=5), 6 months

## OC[C@H]1O[C@H](O[C@H]2O[C@H](CO)[C@@H](O)[C@H](O)[C@H]2O)[C@H](O)[C@@H](O)[C@@H]1O [trehalose, (2R,2′R,3 S,3′S,4S,4′S,5R,5′R,6R,6′R)-6,6′-oxybis(2-(hydroxymethyl)tetrahydro-2H-pyran-3,4,5-triol)]
hTAU mice [1]
  falling off of the ledge / mobility: immobile, not falling off
hTAU mice [1]; listed as Trehalose
  falling off of the ledge / mobility: did not fall off of the ledge frequently
hTAU mice [1]; trehalose 2 g/kg/week for 4 weeks after e-PES injection
  motor activity: could not restore motor activity completely
hTAU mice [1]; trehalose 2 g/kg/week for 4 weeks after e-PES injection at 10-12 weeks of age
  sensorimotor coordination deficits: partially prevented
hTAU mice [1]; trehalose treated mice (n=5) compared to only e-PES treated mice
  time spent on the ledge: significantly more time on the ledge
Human trophoblasts
  AD serum-caused protein aggregation: could be inhibited
[2]
  safety status: generally regarded as safe
SHSY neuronal cells
  AD serum-caused protein aggregation: could be inhibited
hTAU mice [3]
  hTAU burden: reduced hTAU burdern
hTAU mice [4]; between control and indicated treatment groups, 4 month old hTAU mice
  nestlet score at 4 months of age: no significant changes
hTAU mice [4]; [6]
  nestlet score at 6 months of age: significantly lower nestlet scores
  untorn nestlet weight at 6 months of age: significantly greater untorn nestlet weights
hTAU mice [4]; limited (4 weeks) treatment with trehalose, 2 g/kg/week
  cognitive decline: improved cognitive decline
[5]
  onset of AD features: inhibited the onset of AD features

Reference: US20240077500A1, “METHOD FOR THE DETECTION AND TREATMENT OF PROTEINOPATHIES” (Women & Infants Hospital of Rhode Island, priority 2021, published 2024)
